Laboratory results reported in US20260193170A1 (University of Copenhagen, priority 2022, published 2026).

Biological target: T1, human Keap1 Kelch domain (Homo sapiens, UniProt Q14145)
T1 construct: human Keap1 Kelch domain (residue 321-609, UniProt Q14145); made in house; host or cells: Escherichia coli BL21 (DE3) pLysS, pRSET A vector
Experiment: Fluorescence polarization (FP) competition assay, Cy5-Nrf2 peptide probe
Format: binding
Details: heterologous competition FP; Keap1 Kelch 14 nM, Cy5-Nrf2 probe 3 nM, 4% DMSO; mean ± SEM
Protocol: The binding affinities between the fluorescent peptide probe Cy5-Nrf2 (SEQ: Cy5-[…]-NH2) and the human Keap1 Kelch domain were determined as Kd values by saturation binding experiments, where increasing concentrations of Keap1 (0-300 nM) were added to a fixed concentration of peptide probe (3 nM). The assay was performed in a 1× HBSTET buffer (10 mM HEPES, 150 mM NaCl, 0.005% Tween20, 3 mM ethylenediaminetetraacetic acid (EDTA), 1 mM TCEP, pH=7.4) using black flat-bottom 384-well plates (Corning Life Sciences, NY), a volume of 30 μL/well, and a final DMSO concentration of 4% or 8%. The assay plate was spun down to ascertain proper mixing and removal of potential air bubbles and incubated for 10-15 min at room temperature before measuring the FP levels on a Safire2 plate reader (Tecan, Mannedorf, Switzerland). The g-factor was adjusted at each experiment so that a series of three blank wells containing probe but no Keap1 Kelch defined the baseline FP value. The Cy5-Nrf2 probe was measured at excitation/emission values of 635:670 nm. The FP values were fitted to the one-site specific binding equation: Y=Bmax×X/(Kd+X), with Bmax being the maximal FP value, X the Keap1 Kelch concentration, and Y the variable FP values. The Kd values were derived from the resulting binding saturation curve as being equal to the Keap1 Kelch concentration, where the curve is half-saturated.
The affinities between nonfluorescent small molecule Keap1 inhibitors and Keap1 Kelch were determined as Ki values in a heterologous competition FP binding assay. This was done by adding increasing concentration of test compound (2-fold serial dilutions, 12 concentrations tested per inhibition curve as duplicates) to a fixed concentration of Keap1 Kelch (14 nM) and the Cy5-Nrf2 peptide probe (3 nM) in the same HBSTET buffer and conditions as described above (final DMSO concentrations were 4%). FP values were fitted to the equation Y=Bottom+(Top−Bottom)/[1+(10^HillSlope×(log IC50−X))], where X is the logarithmic value of compound concentration. Hereby, the IC50 value was obtained, which together with the […] value and probe and Keap1 Kelch concentrations was used to calculate the theoretical competitive inhibition constant, the Ki value. 43 Ki values are shown as mean±SEM (standard error of mean) if based on two or more individual measurements.

T1 sequence (Q14145 321-609): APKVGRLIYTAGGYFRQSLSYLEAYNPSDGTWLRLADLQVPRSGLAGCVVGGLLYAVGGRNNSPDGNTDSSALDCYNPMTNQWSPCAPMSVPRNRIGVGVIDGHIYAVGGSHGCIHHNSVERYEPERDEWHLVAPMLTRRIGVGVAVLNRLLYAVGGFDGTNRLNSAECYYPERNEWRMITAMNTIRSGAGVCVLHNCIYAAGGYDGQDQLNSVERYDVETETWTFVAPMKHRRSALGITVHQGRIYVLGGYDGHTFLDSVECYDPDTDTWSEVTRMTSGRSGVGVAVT

| Structure (SMILES) | Ki [µM] |
| --- | --- |
| O=C(O)CC(c1ccc2c(c1)OCCO2)c1ccc2ccc(OCC(=O)NC3CCCCC3)cc2c1 (centres unmarked) [3l, 3-(7-(2-(cyclohexylamino)-2-oxoethoxy)naphthalen-2-yl)-3-(2,3-dihydrobenzo[b][1,4]dioxin-6-yl)propanoic acid] | 0.029 ± 0.001 |
| COc1ccc(C)c(C(CC(=O)O)c2ccc3ccc(OCC(=O)NC4CCCCC4)cc3c2)c1 (centres unmarked) [3m, 3-(7-(2-(cyclohexylamino)-2-oxoethoxy)naphthalen-2-yl)-3-(5-methoxy-2-methylphenyl)propanoic acid] | 0.15 ± 0.014 |
| Cc1nc2[nH]ccc2cc1C(CC(=O)O)c1ccc2ccc(OCC(=O)NC3CCCCC3)cc2c1 (centres unmarked) [3n, 3-(7-(2-(cyclohexylamino)-2-oxoethoxy)naphthalen-2-yl)-3-(6-methyl-1H-pyrrolo[2,3-b]pyridin-5-yl)propanoic acid] | 0.129 ± 0.013 |
| O=C(O)CC(c1ccc2ccc(OCC(=O)NC3CCCCC3)cc2c1)c1ccc2occc2c1 (centres unmarked) [3o, 3-(Benzofuran-5-yl)-3-(7-(2-(cyclohexylamino)-2-oxoethoxy)naphthalen-2-yl)propanoic acid] | 0.068 ± 0.012 |
| Cc1ccc(Cl)cc1C(CC(=O)O)c1ccc2ccc(OCC(=O)NC3CCCCC3)cc2c1 (centres unmarked) [3p, 3-(5-Chloro-2-methylphenyl)-3-(7-(2-(cyclohexylamino)-2-oxoethoxy)naphthalen-2-yl)propanoic acid] | 0.234 ± 0.04 |
| Cc1cc2c(cc1C(CC(=O)O)c1ccc3ccc(OCC(=O)NC4CCCCC4)cc3c1)OCCO2 (centres unmarked) [3q, 3-(7-(2-(cyclohexylamino)-2-oxoethoxy)naphthalen-2-yl)-3-(7-methyl-2,3-dihydrobenzo[b][1,4]dioxin-6-yl)propanoic acid] | 0.015 ± 0.001 |
| Cc1cc2c(cc1C(CC(=O)O)c1ccc3ccc(OCC(=O)NC4CCCCC4)cc3c1)OC(F)(F)O2 (centres unmarked) [3r] | 0.007 ± 0.001 |
| Cc1cc2occc2cc1C(CC(=O)O)c1ccc2ccc(OCC(=O)NC3CCCCC3)cc2c1 (centres unmarked) [3s, 3-(7-(2-(cyclohexylamino)-2-oxoethoxy)naphthalen-2-yl)-3-(6-methylbenzofuran-5-yl)propanoic acid] | 0.024 ± 0.001 |
| Cc1cc2c(cc1C(CC(=O)O)c1ccc3ccc(OCC(=O)NC4CCCCC4)cc3c1)CCO2 (centres unmarked) [3t, 3-(7-(2-(cyclohexylamino)-2-oxoethoxy)naphthalen-2-yl)-3-(6-methyl-2,3-dihydrobenzofuran-5-yl)propanoic acid] | 0.032 ± 0.001 |
| O=C(O)CC(c1ccc2c(c1)OCO2)c1ccc2ccc(OCC(=O)NC3C=CCCC3)cc2c1 (centres unmarked) [4a, 3-(Benzo[d][1,3]dioxol-5-yl)-3-(7-(2-(cyclohex-2-en-1-ylamino)-2-oxoethoxy)naphthalen-2-yl)propanoic acid] | 0.025 ± 0.002 |
| Cc1cc2c(cc1C(CC(=O)O)c1ccc3ccc(OCC(=O)NC4C=CCCC4)cc3c1)OCO2 (centres unmarked) [4b, 3-(7-(2-(Cyclohex-2-en-1-ylamino)-2-oxoethoxy)naphthalen-2-yl)-3-(6-methylbenzo[d][1,3]dioxol-5-yl)propanoic acid] | 0.004 ± 0.001 |
| Cc1c(Cl)cccc1C(CC(=O)O)c1ccc2ccc(OCC(=O)NC3C=CCCC3)cc2c1 (centres unmarked) [4c, 3-(3-Chloro-2-methylphenyl)-3-(7-(2-(cyclohex-2-en-1-ylamino)-2-oxoethoxy)naphthalen-2-yl)propanoic acid] | 0.038 ± 0.006 |
| O=C(O)CC(c1ccc2c(c1)OCCO2)c1ccc2ccc(OCC(=O)NC3C=CCCC3)cc2c1 (centres unmarked) [4d, 3-(7-(2-(cyclohex-2-en-1-ylamino)-2-oxoethoxy)naphthalen-2-yl)-3-(2,3-dihydrobenzo[b][1,4]dioxin-6-yl)propanoic acid] | 0.02 ± 0.002 |
| O=C(O)CC(c1ccc2c(c1)CCO2)c1ccc2ccc(OCC(=O)NC3C=CCCC3)cc2c1 (centres unmarked) [4e, 3-(7-(2-(Cyclohex-2-en-1-ylamino)-2-oxoethoxy)naphthalen-2-yl)-3-(2,3-dihydrobenzofuran-5-yl)propanoic acid] | 0.027 ± 0.004 |
| O=C(O)CC(c1ccc2c(c1)OC(F)(F)O2)c1ccc2ccc(OCC(=O)NC3C=CCCC3)cc2c1 (centres unmarked) [4f, 3-(7-(2-(Cyclohex-2-en-1-ylamino)-2-oxoethoxy)naphthalen-2-yl)-3-(2,2-difluorobenzo[d][1,3]dioxol-5-yl)propanoic acid] | 0.03 ± 0.002 |
| O=C(O)CC(c1ccc2ccc(OCC(=O)NC3C=CCCC3)cc2c1)c1ccc2occc2c1 (centres unmarked) [4g, 3-(Benzofuran-5-yl)-3-(7-(2-(cyclohex-2-en-1-ylamino)-2-oxoethoxy)naphthalen-2-yl)propanoic acid] | 0.021 ± 0.002 |
| Cc1ccc(Cl)cc1C(CC(=O)O)c1ccc2ccc(OCC(=O)NC3C=CCCC3)cc2c1 (centres unmarked) [4h, 3-(5-Chloro-2-methylphenyl)-3-(7-(2-(cyclohex-2-en-1-ylamino)-2-oxoethoxy)naphthalen-2-yl)propanoic acid] | 0.048 ± 0.005 |
| Cc1cc2c(cc1C(CC(=O)O)c1ccc3ccc(OCC(=O)NC4C=CCCC4)cc3c1)OCCO2 (centres unmarked) [4i, 3-(7-(2-(cyclohex-2-en-1-ylamino)-2-oxoethoxy)naphthalen-2-yl)-3-(7-methyl-2,3-dihydrobenzo[b][1,4]dioxin-6-yl)propanoic acid] | 0.017 ± 0.003 |
| O=C(O)CC(c1cccc(Cl)c1)c1ccc2ccc(OCC(=O)NC3C=CCCC3)cc2c1 (centres unmarked) [4j, 3-(3-chlorophenyl)-3-(7-(2-(cyclohex-2-en-1-ylamino)-2-oxoethoxy)naphthalen-2-yl)propanoic acid] | 0.206 ± 0.015 |
| COc1ccc(C(CC(=O)O)c2ccc3ccc(OCC(=O)NC4C=CCCC4)cc3c2)c(C)c1 (centres unmarked) [4k, 3-(7-(2-(cyclohex-2-en-1-ylamino)-2-oxoethoxy)naphthalen-2-yl)-3-(4-methoxy-2-methylphenyl)propanoic acid] | 0.017 ± 0.004 |
| Cc1cc2c(cc1C(CC(=O)O)c1ccc3ccc(OCC(=O)NC4C=CCCC4)cc3c1)OC(F)(F)O2 (centres unmarked) [4l, 3-(7-(2-(cyclohex-2-en-1-ylamino)-2-oxoethoxy)naphthalen-2-yl)-3-(2,2-difluoro-6-methylbenzo[d][1,3]dioxol-5-yl)propanoic acid] | 0.016 ± 0.005 |
| Cc1cc2c(cc1C(CC(=O)O)c1ccc3ccc(OCC(=O)NC4C=CCCC4)cc3c1)CCO2 (centres unmarked) [4n, 3-(7-(2-(cyclohex-2-en-1-ylamino)-2-oxoethoxy)naphthalen-2-yl)-3-(6-methyl-2,3-dihydrobenzofuran-5-yl)propanoic acid] | 0.018 ± 0.002 |
| O=C(O)CC(c1ccc2c(c1)OCO2)c1ccc2ccc(OCC(=O)N[C@H]3C[C@@H]4CC[C@H]3C4)cc2c1 (stereo partly drawn) [5a, 3-(benzo[d][1,3]dioxol-5-yl)-3-(7-(2-(((1S,2S,4R)-bicyclo[2.2.1]heptan-2-yl)amino)-2-oxoethoxy)naphthalen-2-yl)propanoic acid] | 0.02 ± 0.003 |
| O=C(O)CC(c1ccc2ccc(OCC(=O)N[C@H]3C[C@@H]4CC[C@H]3C4)cc2c1)c1cc2c(cc1Cl)OCO2 (stereo partly drawn) [5b, 3-(7-(2-(((1S,2S,4R)-bicyclo[2.2.1]heptan-2-yl)amino)-2-oxoethoxy)naphthalen-2-yl)-3-(6-chlorobenzo[d][1,3]dioxol-5-yl)propanoic acid] | 0.004 |
| Cc1cc2c(cc1C(CC(=O)O)c1ccc3ccc(OCC(=O)N[C@H]4C[C@@H]5CC[C@H]4C5)cc3c1)OCO2 (stereo partly drawn) [5c, 3-(7-(2-(((1S,2S,4R)-bicyclo[2.2.1]heptan-2-yl)amino)-2-oxoethoxy)naphthalen-2-yl)-3-(6-methylbenzo[d][1,3]dioxol-5-yl)propanoic acid] | 0.007 |
| Cc1cc2c(cc1C(CC(=O)O)c1ccc3ccc(OCC(=O)N[C@H]4C[C@@H]5CC[C@H]4C5)cc3c1)OCCO2 (stereo partly drawn) [5d, 3-(7-(2-(((1S,2S,4R)-bicyclo[2.2.1]heptan-2-yl)amino)-2-oxoethoxy)naphthalen-2-yl)-3-(7-methyl-2,3-dihydrobenzo[b][1,4]dioxin-6-yl)propanoic acid] | ~0.001 |
| O=C(O)CC(c1ccc2c(c1)OCO2)c1ccc2ccc(OCC(=O)NC3CC=CCC3)cc2c1 (centres unmarked) [6a, 3-(Benzo[d][1,3]dioxol-5-yl)-3-(7-(2-(cyclohex-3-en-1-ylamino)-2-oxoethoxy)naphthalen-2-yl)propanoic acid] | 0.076 ± 0.009 |
| O=C(O)CC(c1ccc2c(c1)OCO2)c1ccc2ccc(OCC(=O)NC3CCC(F)(F)CC3)cc2c1 (centres unmarked) [6b, 3-(benzo[d][1,3]dioxol-5-yl)-3-(7-(2-((4,4-difluorocyclohexyl)amino)-2-oxoethoxy)naphthalen-2-yl)propanoic acid] | 0.08 ± 0.01 |
| CC(C)CNC(=O)COc1ccc2ccc(C(CC(=O)O)c3ccc4c(c3)OCO4)cc2c1 (centres unmarked) [6c, 3-(benzo[d][1,3]dioxol-5-yl)-3-(7-(2-(isobutylamino)-2-oxoethoxy)naphthalen-2-yl)propanoic acid] | 0.138 ± 0.024 |
